Turning to `Cc1ccc2cccc(OCc3c(Cl)ccc(S(=O)(=O)N(C)Cc4cccc(C(N)=O)c4)c3Cl)c2n1`, the melting point (as a rule, the temperature, or range, at which the solid turns liquid) was 208 °C.

Take `O=C(CN1CCC(Cc2ccccc2)CC1)Nc1ccc([N+](=O)[O-])cc1`: the melting point was 126 to 128 °C.

Consider `c1ccc(CN2CCc3c(sc4nc5ccccc5n34)C2)cc1`, for which the melting point was in the range of 124 to 129 °C.

Compound `O=C(O)c1cn(-c2ccc(F)cc2)c(-c2ccc(O)cc2)cc1=O` gave a melting point of 185 to 193 °C.

Compound `CC(C)(C)CC(=O)c1ccc2c(c1)C=C(C(=O)O)C(C(F)(F)F)O2` (configuration not stated) showed a melting point of 198 to 200 °C.

As for `Cc1cc(NC(=O)Nc2ccc(N(CCCl)CCCl)cc2)cc(Nc2c3ccccc3nc3ccccc23)c1`, the melting point fell in the range of 280 to 285 °C.

As for `Cn1nc(N=Cc2ccccc2)nc1NCC(O)COc1cccc(CN2CCCCC2)c1` (configuration not stated), the melting point was in the range of 53 to 57 °C.

With `O=C(O)c1ccc(S(=O)(=O)Oc2ccc(-c3ccc(-c4c(Cc5ccccc5)oc5ccccc45)cc3)cc2)cc1`, the melting point was 186 to 188 °C.

In turn, `CON=C(c1ccccc1OCc1ccc(C)cc1)n1ccnc1` yielded a melting point of 70.5 to 72 °C.

`C#CCn1cc(C=O)c([N+](=O)[O-])c1`: the melting point was 120 °C.

`Cc1nc2cccc(NC(=O)CCl)c2c(=O)n1C1CCC(=O)NC1=O` (configuration not stated): the melting point lay in the range of 275 to 277 °C.

With `Oc1ccc2cc(OCCN3CCC(Cc4ccc(F)cc4)CC3)ccc2c1`, the melting point was in the range of 184 to 185 °C.

`COc1nnc2n1C=Cc1cc(Cl)ccc1C2` came in with a melting point of 177 to 178 °C.

On to `COC(=O)C(Cc1cc(C(C)(C)C)c(O)c(C)c1C)C(=O)OC`, for which the melting point fell in the range of 140 to 143 °C.

Regarding `Cc1cc2ncccc2c(=O)[nH]1`, the melting point was 244 to 245 °C.

The compound `Cn1nc(C(F)(F)F)c(C(O)=C(Br)n2ccc(-c3c(F)cccc3F)n2)c1Cl` yielded a melting point of 123 to 125 °C.

Turning to `N#Cc1ccc(N(Cc2ccc(OS(N)(=O)=O)cc2)n2cnnc2)cc1-c1ccc(F)cc1`, the melting point was in the range of 197 to 199 °C.

As to `OCc1csc(-c2ccccc2)c1`, the melting point was 92 to 93 °C.

As for `Nc1cc2c(cc1Sc1ccccc1)CCC2`, the melting point worked out at 67 °C.

On to `O=C(CC1CCCC1)Nc1ccc2cccc(OS(=O)(=O)C(F)(F)F)c2c1`, for which the melting point lay in the range of 111 to 116 °C.

The compound `O=C(CS(=O)(=O)c1ccccc1)c1ccc(F)nc1` gave a melting point of 127 to 128 °C.

`CC(=O)CS(=O)(=O)CCc1ccc2c(c1)OCO2` displayed a melting point of 97 to 99 °C.

Take `NS(=O)(=O)c1cncc(-c2cn(-c3cc(C(F)(F)F)cc(-c4ccc(C(F)(F)F)cc4)n3)cn2)c1`: the melting point was greater than 250 °C.

As for `CCC1(CCSC(C)=O)C(=O)N2CCCC(C(=O)O)N2C1=O` (configuration not stated), the melting point was 110 to 111 °C.

The compound `CCNC(=O)n1nc(Oc2ccc([N+](=O)[O-])cc2C(F)(F)F)cc1C` showed a melting point of 95 to 97 °C.

In turn, `COC(=O)/C=C/c1ccc(-c2ccc(C(C)C)cc2)s1` gave a melting point of 117 to 119 °C.

In the case of `O=C(O)CCc1ccc(OCCn2c(=O)sc3cc(Cc4ccccc4)ccc32)cc1`, the melting point fell in the range of 158 to 163 °C.

Regarding `COc1ccc(OC)c(C=CC#N)c1`, the melting point lay within 70 to 71 °C.

In turn, `CC(C)N(Cc1c(-c2ccccc2)sc(N2C(=O)c3ccccc3C2=O)c1C(=O)c1ccc(Cl)cc1)C(C)C` showed a melting point of 168 to 170 °C.

In the case of `COc1cccc(C(=O)O)c1OCCN1CCC(c2cn(Cc3ccoc3)c3cnccc23)CC1`, the melting point was 303 to 304 °C.

`O=C1C2CCCC2=Nc2ccccc2N1Cc1cccc(OCc2ccccc2)c1` (configuration not stated) had a melting point of 120 to 122 °C.

As for `NS(=O)(=O)c1ccccc1C=C1CCOC1=O`, the melting point was 178 to 180 °C.

Turning to `O=C1c2ccccc2C(=O)N1C1CCCn2c1nc(-c1ccncc1)cc2=O` (racemic), the melting point was in the range of 211 to 213 °C.

`CC(C)(C)C(=O)c1c[nH]c2ncc(-c3cccc(NS(=O)(=O)c4ccccc4)c3)nc12` registered a melting point of 217 to 219 °C.

Take `COc1cccc(NC(=O)NC2CN(C3CCCCC3)c3ccccc3N(CC(=O)C(C)(C)C)C2=O)c1` (configuration not stated): the melting point is 234 to 235 °C.

In the case of `CN1c2cccc3c2N(CCC3)S1(=O)=O`, the melting point is 103 to 104 °C.

Regarding `COCCn1cc(C=O)c(-c2ccc([N+](=O)[O-])o2)n1`, the melting point fell in the range of 137 to 138 °C.

For `O=S(Cc1ccc(Cl)cc1)C1CCC(C=CC=Cc2ccc(C(F)(F)F)cc2)CC1` (configuration not stated), the melting point lay in the range of 212 to 214 °C.

`CC1(C)CCn2c(nc(-c3ccccn3)cc2=O)N1` yielded a melting point of 345 to 347 °C.

`COc1ncccc1-c1[nH]c2ccccc2c1C1CCNCC1` yielded a melting point of 110 to 115 °C.

As for `Cc1c(F)c(F)c(-n2ncc(C#N)c2N)c(F)c1F`, the melting point lay within 169 to 170 °C.

On to `O=C1[C@H]2CCC[C@H]2N(C(=O)CN2CCN(c3ccccc3)CC2)c2ccccc2N1Cc1ccccc1` (relative stereo), for which the melting point lay within 164 to 165 °C.

`N#CCC1=C(n2nc(-c3c(-c4ccccc4)nn4ccccc34)ccc2=O)CCCC1` gave a melting point of 74 to 76 °C.

On to `COc1cccc2oc(-c3ccccc3Cl)cc(=O)c12`, for which the melting point was in the range of 148 to 149 °C.

The compound `CC(=O)c1ccc(N2CCN(C(=O)c3c(Cl)ccc([N+](=O)[O-])c3Cl)CC2)c(F)c1` gave a melting point of 209 to 211 °C.

In turn, `CCOC(=O)C1=C(c2ccc(-n3c(C)nc4cnccc43)cc2)NC(C)=C(C(=O)Nc2ccccn2)C1c1ccccc1Cl` (configuration not stated) yielded a melting point of 226 to 228 °C.

`O=C(O)CCc1cn(Cc2ccc3cc(OCc4ccccc4F)ccc3c2)nc1-c1ccccc1` showed a melting point of 152 to 153 °C.

With `CC(C)(C)OC(=O)N1CCN(c2ccc(-c3ccnc(Cl)n3)cn2)CC1`, the melting point fell in the range of 182 to 183 °C.

Regarding `CNS(=O)(=O)Cc1cc(Br)c(N)c(Br)c1`, the melting point was 155 to 157 °C.

Take `CCc1ccc2c(n1)C(C(N)=S)CCC2` (configuration not stated): the melting point was in the range of 73 to 75 °C.

In turn, `Cc1oc2c(OC(C)C#N)cccc2c1C` (configuration not stated) showed a melting point of 53 to 55 °C.

Compound `O=C(O)c1cc(-c2ccc3occc3c2)nn(Cc2ccc(F)cc2)c1=O` displayed a melting point of 207 to 210 °C.

Turning to `O=c1[nH]ncc2c1c(O)nc1cc(Cl)c(Cl)cc12`, the melting point was greater than 350 °C.

`CCOC(=O)c1cccc(Nc2nccc(-c3ccnc(Cl)c3)n2)c1` registered a melting point of 149 to 150 °C.

Compound `O=C1N(Cc2nsc(Cl)n2)c2ccccc2C12COc1cc3c(cc12)OCO3` (configuration not stated) came in with a melting point of 114 to 116 °C.

`CC(C)n1cc(-c2ccc(NS(=O)(=O)c3ccccc3)cc2)c2c(N)ncnc21` displayed a melting point of 238 to 240 °C.

For `Cc1c(S(C)(=O)=O)c2ccccc2n1CC1=NCCN1`, the melting point lay within 187 to 188 °C.

Compound `O=C(CCCCCN1CCN(c2cccc(C(F)(F)F)c2)CC1)N1Cc2ccc(C3=NCCO3)cc2C1` yielded a melting point of 129 °C.

With `O=C1N(CO)c2cccc(Cl)c2C1(CO)c1cc2c(cc1O)OCO2` (configuration not stated), the melting point was greater than 210 °C.

Compound `Cc1ccc(N2N=C3c4cc(C(=O)CCl)sc4CCC3CC2=O)cc1` (configuration not stated) came in with a melting point of 169 to 171 °C.

Take `CCN1C(=O)c2cnc(-c3ccccc3)nc2Nc2ccccc21`: the melting point is 198 to 199 °C.

`CCC(CC)n1cc(C)nc(N2CCc3cc(Cl)cc(Cl)c32)c1=O` registered a melting point of 137 to 139 °C.

As for `CC(C)CN1C(=O)N(C)C2(NC(=O)NC2=O)c2cc(Cl)ccc21` (configuration not stated), the melting point worked out at 118 °C.

Consider `O=C(Cl)c1cccc(N2CCOCC2)c1`, for which the melting point was 219 to 220 °C.

`CS(=O)(=O)c1ccc(-c2sc(-c3ccccc3Cl)nc2-c2ccccc2)cc1` returned a melting point of 192 to 195 °C.

With `Cc1nc(OC[C@@H]2COC(C)(C)O2)c(C#N)c(N2CCc3ccccc3CC2)n1`, the melting point fell in the range of 110 to 112 °C.

`Cc1oc(-c2ccccc2)nc1COc1cccc(COc2nn(Cc3ccccc3)cc2C=O)c1` gave a melting point of 131 to 132 °C.

In the case of `COC(=O)N[C@H](C(=O)NN(Cc1ccc(-c2cncs2)cc1)C[C@H](O)[C@H](Cc1ccccc1)NC(=O)[C@@H](NC(=O)OC)C(C)(C)C)C(C)C`, the melting point fell in the range of 134 to 135 °C.

In turn, `CCCOc1ccc(S(=O)(=O)N2CCN(CCOC(=O)CC)CC2)cc1-c1nc2c(CCC)cn(CC)c2c(=O)[nH]1` yielded a melting point of 126 to 128 °C.

In turn, `CSc1ccc(C2C(=O)c3ccccc3C2=O)cc1` came in with a melting point of 153 to 155 °C.

In the case of `COc1cccc2c(Nc3ccccc3C)nc(N3CCCC3)nc12`, the melting point is 181 to 183 °C.

`Cc1c(CCO)c(=O)oc2cc(O)cc(O)c12` returned a melting point of 243 to 245 °C.

`CCOC(=O)[C@@H]1CCC(=O)N1C(=O)OC(C)(C)C` displayed a melting point of 48 to 49 °C.

The compound `CCC(=O)c1cccc(C(=O)Nc2ccccn2)c1` registered a melting point of 128 to 129 °C.

With `C=CCOc1ccc(-c2ccc(C#N)cc2)cc1`, the melting point was in the range of 68 to 69 °C.

Regarding `Nc1ccccc1NCCO`, the melting point was 105 to 106 °C.

As for `CC1C(=O)C2CC(=O)N2C1C(=O)OC(c1ccccc1)c1ccccc1` (configuration not stated), the melting point is 132 to 133 °C.

In the case of `CC(=O)N(C)C1CCNCC1`, the melting point was less than 50 °C.

In turn, `CNC(SC)=C(C#N)C#N` returned a melting point of 119 to 120 °C.

Compound `Cc1cccc(-c2[nH]c(C(C)C)nc2-c2cccc(-c3ccc(NS(=O)(=O)C4CC4)cc3F)c2)n1` came in with a melting point of 124 to 128 °C.

For `C#CCn1ccc(C(=O)OC)c1C=O`, the melting point came out at 76 °C.

`N#Cc1c(N)nc2ccc(N3CCOCC3)cc2c1O` returned a melting point of 291 °C.

Take `O=C(CCl)Nc1ccc2c(c1NC(=O)Cc1ccccc1)C(=O)c1ccccc1C2=O`: the melting point lay within 184 to 185 °C.

Take `O=C(O)Cn1c(=O)c(=O)[nH]c2ccc3ccc(-n4ccc(CN5CCc6ccccc6C5)c4)cc3c21`: the melting point is greater than 250 °C.

`O=C(CC(=O)C(F)(F)F)c1ccc(-c2ccco2)cc1` registered a melting point of 157 °C.

In the case of `CCCC[C@H](NC(=O)[C@H](CC(C)C)NC(=O)c1ccc(OC)cc1)C(=O)CSCc1ccco1`, the melting point came out at 124 °C.

For `O=C(O)CCCC#CCN1C(=O)c2ccccc2C1=O`, the melting point is 120 to 122 °C.

The values above are taken from a melting point compilation (Tetko et al.; mined from patent text by program, amines drawn as free bases though some values may be those of a salt).
